How the values were obtained:
[1] = osmotic coefficient (dimensionless); mn = molality of the nth substance listed, in mol/kg; conditions: 100 kPa, Liquid, boiling point elevation
[2] = mn = molality of the nth substance listed, in mol/kg; conditions: 298 K, 100 kPa, Liquid, Vibrating tube method

CN(C)CC(=O)O [(Dimethylamino)acetic acid] + O
[1]
Conditions	osmotic coefficient
310.15 K, m1 = 0.0986	1.069
310.15 K, m1 = 0.2005	1.035
310.15 K, m1 = 0.4001	1.072
310.15 K, m1 = 0.8024	1.076
310.15 K, m1 = 1.003	1.126
310.15 K, m1 = 1.193	1.141
310.15 K, m1 = 1.401	1.147
310.15 K, m1 = 1.585	1.154
310.15 K, m1 = 1.797	1.169
310.15 K, m1 = 1.992	1.206
323.15 K, m1 = 0.2056	0.981
323.15 K, m1 = 0.2889	0.989
323.15 K, m1 = 0.4998	1.008
323.15 K, m1 = 1.015	1.021
323.15 K, m1 = 1.5	1.114

[2]
Conditions	mass density [kg/m3]
m1 = 0.4001	1005.64
m1 = 1.003	1016.88
m1 = 1.401	1024.01
m1 = 1.992	1033.69

NC(=O)NCCC[C@H](N)C(=O)O [N5-aminocarbonyl-L-ornithine] + O
osmotic coefficient, [1]
Conditions	m1 = 0.1011	m1 = 0.1989	m1 = 0.2016	m1 = 0.3942	m1 = 0.402	m1 = 0.4915	m1 = 0.6001	m1 = 0.6892
310.15 K	1.011	1.003	–	0.9986	–	0.9973	–	1.002
323.15 K	–	–	1.007	–	1.001	–	0.9931	–

[2]
Conditions	mass density [kg/m3]
m1 = 0.1989	1008.22
m1 = 0.3842	1018.59
m1 = 0.6007	1029

C[N+](C)(C)[O-] [trimethylamine oxide] + O
[1]
Conditions	osmotic coefficient
310.15 K, m1 = 0.1988	0.9879
310.15 K, m1 = 0.406	1.034
310.15 K, m1 = 0.62	1.062
310.15 K, m1 = 0.7971	1.152
310.15 K, m1 = 0.9921	1.133
310.15 K, m1 = 1.199	1.15
310.15 K, m1 = 1.392	1.192
310.15 K, m1 = 1.59	1.31
323.15 K, m1 = 0.5008	1.076
323.15 K, m1 = 1.015	1.171
323.15 K, m1 = 1.5	1.27

[2]
Conditions	mass density [kg/m3]
m1 = 0.406	998.235
m1 = 0.7971	999.133
m1 = 1.199	1000.21
m1 = 1.59	1001.54
m1 = 2.002	1002.01
m1 = 2.445	1003.03

OC[C@H]1O[C@H](O[C@H]2O[C@H](CO)[C@@H](O)[C@H](O)[C@H]2O)[C@H](O)[C@@H](O)[C@@H]1O [α-trehalose] + O
[1], 310.15 K
Conditions	osmotic coefficient
m1 = 0.0499	1.031
m1 = 0.0998	1.036
m1 = 0.1997	1.02
m1 = 0.2995	0.999
m1 = 0.3989	1.01
m1 = 0.4992	1.022
m1 = 0.5995	0.9904
m1 = 0.6932	1.019
m1 = 1.469	1.063
m1 = 1.982	1.08

[2]
Conditions	mass density [kg/m3]
m1 = 0.1997	1022.61
m1 = 0.3989	1046.2
m1 = 0.5995	1068.34
m1 = 0.7914	1087.59
